Results reported in patent US20170114021A1, “HALOGEN-SUBSTITUTED COMPOUNDS” (priority 2014, published 2017).

Tests used:
Format in all cases: in vivo
[1] = tested on: Boophilus microplus Parkhurst strain, SP-resistant; assay: Boophilus microplus dip test (BOOPMI Dip); conditions: application rate 20 ppm; engorged adult female cattle ticks; after 7 days
Protocol: Boophilus microplus—Dip Test (BOOPMI Dip) Test animals: cattle ticks (Boophilus microplus) Parkhurst strain, SP-resistant Solvent: dimethyl sulphoxide
10 mg of active compound are dissolved in 0.5 ml of dimethyl sulphoxide. To produce a suitable formulation, the active compound solution is diluted with water to the concentration desired in each case.
This active compound preparation is pipetted into tubes. 8-10 engorged adult female cattle ticks (Boophilus microplus) are transferred into a further tube with holes. The tube is immersed into the active compound preparation, and all the ticks are completely wetted. After the liquid has run out, the ticks are transferred on filter discs into plastic dishes and stored in a climate-controlled room.
Efficacy is assessed after 7 days by laying of fertile eggs. Eggs which are not visibly fertile are stored in a climate-controlled cabinet until the larvae hatch after about 42 days. An efficacy of 100% means that none of the ticks has laid any fertile eggs; 0% means that all the eggs are fertile.

Musca domestica = Musca domestica test (MUSCDO); conditions: application rate 20 ppm; adult houseflies; after 2 days
Protocol: Musca domestica-Test (MUSCDO) Solvent: dimethyl sulphoxide
To produce a suitable preparation of active compound, 10 mg of active compound are mixed with 0.5 ml of dimethyl sulphoxide, and the concentrate is diluted with water to the desired concentration.
Vessels containing a sponge treated with sugar solution and the active compound preparation of the desired concentration are populated with 10 adult houseflies (Musca domestica).
After 2 days, the kill in % is determined. 100% means that all of the flies have been killed; 0% means that none of the flies have been killed.

Myzus persicae = Myzus persicae spray test (MYZUPE); conditions: application rate 100 g/ha; Chinese cabbage leaf discs; after 6 days
Protocol: Myzus persicae—Spray Test (MYZUPE) Solvent: 78 parts by weight of acetone • • 1.5 parts by weight of dimethylformamide Emulsifier: alkylaryl polyglycol ether
(§1) To produce a suitable preparation of active compound, 1 part by weight of active compound is dissolved using the specified parts by weight of solvent and made up with water containing an emulsifier concentration of 1000 ppm until the desired concentration is attained. To produce further test concentrations, the preparation is diluted with emulsifier-containing water.
Discs of Chinese cabbage leaves (Brassica pekinensis) infested by all stages of the green peach aphid (Myzus persicae) are sprayed with an active compound preparation of the desired concentration.
After 6 days, efficacy in % is determined. 100% means that all the aphids have been killed; 0% means that no aphids have been killed.

Phaedon cochleariae = Phaedon cochleariae spray test (PHAECO); conditions: application rate 100 g/ha; Chinese cabbage leaf discs; after 7 days
Protocol: Phaedon cochleariae—Spray Test (PHAECO) Solvent: 78.0 parts by weight of acetone • • 1.5 parts by weight of dimethylformamide Emulsifier: alkylaryl polyglycol ether
as §1
After 7 days, efficacy in % is determined. 100% means that all the beetle larvae have been killed; 0% means that no beetle larvae have been killed.

Substance: N-{2-fluoro-5-[2′-methyl-5′-(pentafluoroethyl)-4′-(trifluoromethyl)-2′H-1,3′-bipyrazol-4-yl]benzyl}propanamide [Ic-1]
- efficacy (laying of fertile eggs) [1]: 100%
- efficacy (kill) (Musca domestica): 100%
- efficacy (Myzus persicae): 90%
- efficacy (Phaedon cochleariae): 100%
